# Source: ChEMBL document CHEMBL1146031, “N-acylated sulfonamide sodium salt: a prodrug of choice for the bifunctional 2-hydroxymethyl-4-(5-phenyl-3-trifluoromethyl-pyrazol-1-yl) benzenesulfonamide class of COX-2 inhibitors” (Bioorg Med Chem Lett, 2006)
# Where “and” joins values, the source holds several entries; their conditions need not be identical. Identical values can stand only once. Calls of active or inactive are those of the source. No cut-off for these calls is given here.
# Key:
# [1] = system: Rattus norvegicus; assay: Anti-inflammatory activity in orally dosed Wistar rat assessed as reduction of carrageenan-induced paw edema at 30 mg/kg, po; format: functional
# [2] = system: Rattus norvegicus; assay: Anti-inflammatory activity in orally dosed Wistar rat assessed as reduction of carrageenan-induced paw edema; format: functional; conditions: po
# [3] = target: T1, Prostaglandin G/H synthase 2 (Homo sapiens) (UniProt P35354); assay: Inhibition of human recombinant COX2 expressed in sf9 cells infected with baculovirus at 10 uM
# T1 sequence (whole entry): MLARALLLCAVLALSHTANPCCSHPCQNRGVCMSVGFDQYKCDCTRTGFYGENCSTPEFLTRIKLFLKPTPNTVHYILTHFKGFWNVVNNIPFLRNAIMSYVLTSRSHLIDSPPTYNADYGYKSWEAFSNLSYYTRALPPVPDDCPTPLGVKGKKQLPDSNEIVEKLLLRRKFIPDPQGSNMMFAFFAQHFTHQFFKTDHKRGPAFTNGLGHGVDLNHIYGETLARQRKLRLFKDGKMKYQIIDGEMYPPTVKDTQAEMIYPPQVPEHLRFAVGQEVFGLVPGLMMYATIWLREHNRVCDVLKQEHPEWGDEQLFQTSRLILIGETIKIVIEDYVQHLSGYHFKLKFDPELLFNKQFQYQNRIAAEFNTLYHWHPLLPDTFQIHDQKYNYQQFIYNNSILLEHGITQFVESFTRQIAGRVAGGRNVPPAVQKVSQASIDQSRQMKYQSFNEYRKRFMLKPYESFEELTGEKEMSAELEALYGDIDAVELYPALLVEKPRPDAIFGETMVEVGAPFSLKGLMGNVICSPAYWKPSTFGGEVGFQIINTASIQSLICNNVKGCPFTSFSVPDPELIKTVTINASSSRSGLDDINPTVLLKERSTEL
# [4] = target: Prostaglandin G/H synthase 1 (Ovis aries) (UniProt P05979); assay: Inhibition of microsomal COX1 at 10 uM
# Chain of Prostaglandin G/H synthase 1 (Ovis aries) (P05979 whole entry, looked up): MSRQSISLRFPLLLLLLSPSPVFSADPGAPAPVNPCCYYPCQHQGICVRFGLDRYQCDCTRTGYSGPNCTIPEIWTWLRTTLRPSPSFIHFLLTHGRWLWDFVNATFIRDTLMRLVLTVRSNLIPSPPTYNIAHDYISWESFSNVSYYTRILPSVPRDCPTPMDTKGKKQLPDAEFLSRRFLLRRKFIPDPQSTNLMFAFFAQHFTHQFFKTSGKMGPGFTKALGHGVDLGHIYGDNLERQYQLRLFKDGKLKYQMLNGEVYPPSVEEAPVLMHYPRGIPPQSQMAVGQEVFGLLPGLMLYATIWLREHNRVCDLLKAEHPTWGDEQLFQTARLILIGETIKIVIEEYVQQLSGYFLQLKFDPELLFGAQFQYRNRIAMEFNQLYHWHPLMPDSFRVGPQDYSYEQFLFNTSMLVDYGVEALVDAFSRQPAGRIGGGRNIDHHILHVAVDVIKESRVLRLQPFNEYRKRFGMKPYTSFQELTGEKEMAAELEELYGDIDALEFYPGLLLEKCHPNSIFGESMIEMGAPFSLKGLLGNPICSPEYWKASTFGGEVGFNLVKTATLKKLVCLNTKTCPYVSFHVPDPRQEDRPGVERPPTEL
# [5] = system: Rattus norvegicus; assay: Anti-inflammatory activity in orally dosed Wistar rat assessed as reduction of carrageenan-induced paw edema at 1 mg/kg, po; format: functional, organism-based; set-up: dose 1 mg/kg
# [6] = system: Rattus norvegicus; assay: Anti-inflammatory activity in orally dosed Wistar rat assessed as reduction of carrageenan-induced paw edema at 10 mg/kg, po; format: functional, organism-based; set-up: dose 10 mg/kg
# [7] = system: Rattus norvegicus; assay: Anti-inflammatory activity in orally dosed Wistar rat assessed as reduction of carrageenan-induced paw edema at 3 mg/kg, po; format: functional, organism-based; set-up: dose 3 mg/kg
# [8] = Terminal half life in Wistar rat at 100 mg/kg, po; format: ADME, organism-based; set-up: dose 100 mg/kg, route oral; conditions: in vivo
# [9] = AUC (0-infinity) in Wistar rat at 100 mg/kg, po; format: ADME, organism-based; set-up: time infinity, dose 100 mg/kg, route oral; conditions: plasma
# [10] = AUC in Wistar rat at 100 mg/kg, po; format: ADME, organism-based; set-up: dose 100 mg/kg, route oral; conditions: plasma
# [11] = Cmax in Wistar rat at 100 mg/kg, po; format: ADME, organism-based; set-up: dose 100 mg/kg, route oral; conditions: in vivo
# [12] = Tmax in Wistar rat at 100 mg/kg, po; format: ADME, organism-based; set-up: dose 100 mg/kg, route oral; conditions: in vivo
SMILES,inhibition at 30 mg/kg [1],ED50 [2],inhibition [3],inhibition [4],further results
CCC(=O)NS(=O)(=O)c1ccc(-n2nc(C(F)F)cc2-c2ccc(Br)cc2)cc1COC(=O)CC [listing 1 of 2 here],45%,–,–,–,–
CCC(=O)[N-]S(=O)(=O)c1ccc(-n2nc(C(F)(F)F)cc2-c2ccc3c(c2)CCC3)cc1COC(=O)CC.[Na+],41%,–,–,–,–
Cc1ccc(-c2cc(C(F)(F)F)nn2-c2ccc(S(N)(=O)=O)cc2)cc1 [CELECOXIB],–,6.7 mg/kg,–,–,–
CCC(=O)OCc1cc(-n2nc(C(F)(F)F)cc2-c2ccc3c(c2)CCC3)ccc1S(N)(=O)=O,30%,–,57%,0%,–
CCC(=O)NS(=O)(=O)c1ccc(-n2nc(C(F)(F)F)cc2-c2ccc3c(c2)CCC3)cc1COC(=O)CC [listing 1 of 2 here],–,–,–,0%,Activity [5]: inactive; Activity [6]: inactive; Activity [7]: inactive
CCC(=O)NS(=O)(=O)c1ccc(-n2nc(C(F)F)cc2-c2ccc(OC)c(C)c2)cc1COC(=O)CC [listing 1 of 2 here],–,–,–,0%,–
CCC(=O)OCc1cc(-n2nc(C(F)F)cc2-c2ccc(Br)cc2)ccc1S(N)(=O)=O,40%,–,55%,5%,–
CCC(=O)NS(=O)(=O)c1ccc(-n2nc(C(F)(F)F)cc2-c2ccc(OC)c(C)c2)cc1COC(=O)CC [listing 1 of 2 here],–,–,10% and 5%,0%,–
CCC(=O)NS(=O)(=O)c1ccc(-n2nc(C(F)F)cc2-c2ccc(OC)c(C)c2)cc1COC(=O)CC [listing 2 of 2 here],42%,–,–,–,–
NS(=O)(=O)c1ccc(-n2nc(C(F)(F)F)cc2-c2ccc(Br)cc2)cc1CO,35%,–,–,–,–
CCC(=O)[N-]S(=O)(=O)c1ccc(-n2nc(C(F)(F)F)cc2-c2ccc(Br)cc2)cc1COC(=O)CC.[Na+],–,12.5 mg/kg,–,–,–
CCC(=O)NS(=O)(=O)c1ccc(-n2nc(C(F)(F)F)cc2-c2ccc(SC)cc2)cc1COC(=O)CC [listing 1 of 2 here],38%,–,–,–,–
CCC(=O)NS(=O)(=O)c1ccc(-n2nc(C(F)(F)F)cc2-c2ccc(Br)cc2)cc1COC(=O)CC [listing 1 of 2 here],37%,–,–,–,–
CSc1ccc(-c2cc(C(F)(F)F)nn2-c2ccc(S(N)(=O)=O)c(CO)c2)cc1,47%,–,–,–,–
CCC(=O)[N-]S(=O)(=O)c1ccc(-n2nc(C(F)(F)F)cc2-c2ccc(OC)c(C)c2)cc1COC(=O)CC.[Na+],34%,–,–,–,–
CCC(=O)NS(=O)(=O)c1ccc(-n2nc(C(F)(F)F)cc2-c2ccc(SC)cc2)cc1COC(=O)CC [listing 2 of 2 here],–,–,18% and 25%,0%,–
CCC(=O)NS(=O)(=O)c1ccc(-n2nc(C(F)(F)F)cc2-c2ccc3c(c2)CCC3)cc1COC(=O)CC [listing 2 of 2 here],–,–,–,–,Inhibition ([2]; 30 mg/kg): 64%
CCC(=O)[N-]S(=O)(=O)c1ccc(-n2nc(C(F)(F)F)cc2-c2ccc(SC)cc2)cc1COC(=O)CC.[Na+],40%,–,–,–,–
CCCC(=O)[N-]S(=O)(=O)c1ccc(-n2nc(C(F)(F)F)cc2-c2ccc(C)cc2)cc1.[Na+],–,6.64 mg/kg,2%,0%,–
CCC(=O)[N-]S(=O)(=O)c1ccc(-n2nc(C(F)(F)F)cc2-c2ccc3c(c2)CCO3)cc1CO.[Na+],–,7.5 mg/kg,25%,5%,–
CCC(=O)OCc1cc(-n2nc(C(F)F)cc2-c2ccc(OC)c(C)c2)ccc1S(N)(=O)=O,–,15 mg/kg,75%,0%,–

SMILES,inhibition at 30 mg/kg [1],ED50 [2],inhibition [3],inhibition [4],further results
CCC(=O)NS(=O)(=O)c1ccc(-n2nc(C(F)(F)F)cc2-c2ccc(Br)cc2)cc1COC(=O)CC [listing 2 of 2 here],–,–,25% and 35%,0%,–
CCC(=O)[N-]S(=O)(=O)c1ccc(-n2nc(C(F)F)cc2-c2ccc(OC)c(C)c2)cc1CO.[Na+],–,6.3 mg/kg,13%,0%,half-life [8]: 355 min; AUC(0-inf) [9]: 114 µg·h/mL; AUC [10]: 106 µg·h/mL; Cmax [11]: 7540 ng/mL; Tmax [12]: 2.82 h
CCC(=O)[N-]S(=O)(=O)c1ccc(-n2nc(C(F)F)cc2-c2ccc(OC)c(C)c2)cc1COC(=O)CC.[Na+],32%,–,–,–,–
COc1ccc(-c2cc(C(F)(F)F)nn2-c2ccc(S(N)(=O)=O)c(CO)c2)cc1C,–,21.7 mg/kg,–,–,half-life [8]: 398 min; AUC(0-inf) [9]: 112 µg·h/mL; AUC [10]: 73.7 µg·h/mL; Cmax [11]: 6370 ng/mL; Tmax [12]: 3.5 h
CCC(=O)OCc1cc(-n2nc(C(F)(F)F)cc2-c2ccc(Br)cc2)ccc1S(N)(=O)=O,–,17 mg/kg,65%,0%,–
CCC(=O)[N-]S(=O)(=O)c1ccc(-n2nc(C(F)F)cc2-c2ccc(Br)cc2)cc1CO.[Na+],–,5.6 mg/kg,14%,0%,half-life [8]: 445 min; AUC(0-inf) [9]: 321 µg·h/mL; AUC [10]: 289 µg·h/mL; Cmax [11]: 28400 ng/mL; Tmax [12]: 2.85 h
CCC(=O)[N-]S(=O)(=O)c1ccc(-n2nc(C(F)(F)F)cc2-c2ccc(OC)c(C)c2)cc1CO.[Na+],–,6.2 mg/kg,15%,0%,half-life [8]: 409 min; AUC(0-inf) [9]: 149 µg·h/mL; AUC [10]: 125 µg·h/mL; Cmax [11]: 9320 ng/mL; Tmax [12]: 3.78 h
CCC(=O)[N-]S(=O)(=O)c1ccc(-n2nc(C(F)F)cc2-c2ccc(Br)cc2)cc1COC(=O)CC.[Na+],–,7.9 mg/kg,–,–,–
CCC(=O)[N-]S(=O)(=O)c1ccc(-n2nc(C(F)(F)F)cc2-c2ccc(SC)cc2)cc1CO.[Na+],36%,–,21%,0%,–
NS(=O)(=O)c1ccc(-n2nc(C(F)(F)F)cc2-c2ccc3c(c2)CCC3)cc1CO,–,23.5 mg/kg,–,–,–
NS(=O)(=O)c1ccc(-n2nc(C(F)(F)F)cc2-c2ccc3c(c2)CCO3)cc1CO,–,22.3 mg/kg,–,–,–
CCC(=O)NS(=O)(=O)c1ccc(-n2nc(C(F)(F)F)cc2-c2ccc(OC)c(C)c2)cc1COC(=O)CC [listing 2 of 2 here],48%,–,–,–,–
CCC(=O)NS(=O)(=O)c1ccc(-n2nc(C(F)F)cc2-c2ccc(Br)cc2)cc1COC(=O)CC [listing 2 of 2 here],–,–,12% and 25%,0% and 1%,–
CCC(=O)NS(=O)(=O)c1ccc(-n2nc(C(F)(F)F)cc2-c2ccc3c(c2)CCO3)cc1COC(=O)CC [listing 1 of 2 here],25%,–,–,–,–
CCC(=O)OCc1cc(-n2nc(C(F)(F)F)cc2-c2ccc3c(c2)CCO3)ccc1S(N)(=O)=O,–,8.5 mg/kg,61%,0%,–
COc1ccc(-c2cc(C(F)F)nn2-c2ccc(S(N)(=O)=O)c(CO)c2)cc1C,–,18.5 mg/kg,–,–,AUC [10]: 2.4 µg·h/mL; Cmax [11]: 700 ng/mL; Tmax [12]: 2.25 h
CCC(=O)[N-]S(=O)(=O)c1ccc(-n2nc(C(F)(F)F)cc2-c2ccc(Br)cc2)cc1CO.[Na+],–,7.2 mg/kg,23%,0%,–
CCC(=O)[N-]S(=O)(=O)c1ccc(-n2nc(C(F)(F)F)cc2-c2ccc3c(c2)CCO3)cc1COC(=O)CC.[Na+],43%,–,–,–,–
CCC(=O)NS(=O)(=O)c1ccc(-n2nc(C(F)(F)F)cc2-c2ccc3c(c2)CCO3)cc1COC(=O)CC [listing 2 of 2 here],–,–,2% and 12%,0%,–
NS(=O)(=O)c1ccc(-n2nc(C(F)F)cc2-c2ccc(Br)cc2)cc1CO,42%,–,–,–,half-life [8]: 451 min; AUC(0-inf) [9]: 265 µg·h/mL; AUC [10]: 239 µg·h/mL; Cmax [11]: 20800 ng/mL; Tmax [12]: 2.67 h
CCC(=O)OCc1cc(-n2nc(C(F)(F)F)cc2-c2ccc(OC)c(C)c2)ccc1S(N)(=O)=O,–,10.9 mg/kg,–,12%,–
